Among the data in US6472391B2, “Nitrogen-containing heterocyclic compounds” (Millennium Pharmaceuticals, Inc., priority 1996, dated 2002) are melting point values, retold here.

Turning to `O=C(Nc1ccc(Oc2ccccc2)cc1)N1CCN(c2ncnc3ccc(I)cc23)CC1` [Compound 305, 4-(6-Iodo-4-quinazolinyl)-N-(4-phenoxyphenyl)-1-piperazinecarboxamide], the melting point was in the range of 184 to 185 °C. Take `COc1cc2ncnc(N3CCN(C(=O)Nc4ccc(C)nc4)CC3)c2cc1OC` [Compound 271, 4-(6,7-Dimethoxy-4-quinazolinyl)-N-(2-methyl-5-pyridyl)-1-piperazinecarboxamide]: the melting point was 240 to 241 °C. `CCOc1cc2c(N3CCN(C(=O)Nc4ccc(Oc5ccccc5)cc4)CC3)ncnc2cc1OC` [Compound 346, 4-(6-Ethoxy-7-methoxy-4-quinazolinyl)-N-(4-phenoxyphenyl)-1-piperazinecarboxamide] returned a melting point of 213 to 214 °C. Take `CC(C)c1ccc(NC(=O)N2CCN(c3ncnc4ccc(I)cc34)CC2)cc1` [Compound 304, 4-(6-Iodo-4-quinazolinyl)-N-(4-isopropylphenyl)-1-piperazinecarboxamide]: the melting point lay within 211 to 212 °C. The value for `COc1cc2ncnc(N3CCN(C(=S)Nc4ccc(Br)cc4)CC3)c2cc1OC` [Compound 182, N-(4-Bromophenyl)-4-(6,7-dimethoxy-4-quinazolinyl)-1-piperazinethiocarboxamide] was 170 to 171 °C.

`N#Cc1ccc(NC(=O)N2CCN(c3ncnc4cc5c(cc34)OCO5)CC2)cc1` [Compound 369, N-(4-Cyanophenyl)-4-(6,7-methylenedioxy-4-quinazolinyl)-1-piperazinecarboxamide] showed a melting point of 220 to 222 °C. Molecule `COc1ccc(CNC(=S)N2CCN(c3ncnc4cc(OC)c(OC)cc34)CC2)cc1OC` [Compound 205, N-(3,4-Dimethoxybenzyl)-4-(6,7-dimethoxy-4-quinazolinyl)-1-piperazinethiocarboxamide] yielded a melting point of 196 to 197 °C. `COc1cc2ncnc(N3CCN(C(=O)NCCc4ccc(Cl)cc4)CC3)c2cc1OC` [Compound 119, N-[2-(4-Chlorophenyl)ethyl]-4-(6,7-dimethoxy-4-quinazolinyl)-1-piperazinecarboxamide] yielded a melting point of 177 to 178 °C. The value for `COc1cc2ncnc(N3CCN(C(=O)Nc4ccc(C(=O)c5ccccc5)cc4)CC3)c2cc1OC` [Compound 245, N-(4-Benzoylphenyl)-4-(6,7-dimethoxy-4-quinazolinyl)-1-piperazinecarboxamide] was 240 to 241 °C; that for `O=C(Nc1ccc(Oc2ccccc2)cc1)N1CCN(c2ccnc3c(C(F)(F)F)cccc23)CC1` [Compound 411, N-(4-Phenoxyphenyl)-4-(8-trifluoromethyl-4-quinolyl)-1-piperazinecarboxamide] was 214 to 215 °C. For the molecule `COc1cc2ncnc(N3CCN(C(=S)Nc4ccc([N+](=O)[O-])cc4)CC3)c2cc1OC` [Compound 80, 4-(6,7-Dimethoxy-4-quinazolinyl)-N-(4-nitrophenyl)-1-piperazinethiocarboxamide], the melting point lay in the range of 221 to 224 °C. In the case of `CCC[C@H]1CC[C@H](c2ccc(NC(=S)N3CCN(c4ncnc5cc(OC)c(OC)cc45)CC3)cc2)CC1` [Compound 169, 4-(6,7-Dimethoxy-4-quinazolinyl)-N-[trans-4-(4-propylcyclohexyl)phenyl]-1-piperazinethiocarboxamide], the melting point was in the range of 106 to 109 °C.

`COc1cc2c(N3CCN(C(=O)Nc4ccc(Oc5ccccc5)cc4)CC3)ncnc2cc1C` [Compound 333, 4-(6-Methoxy-7-methyl-4-quinazolinyl)-N-(4-phenoxyphenyl)-1-piperazinecarboxamide] displayed a melting point of 188 to 189 °C.

In the case of `S=C(NCc1ccc(Cl)cc1)N1CCN(c2ccnc3ccc(Cl)cc23)CC1` [Compound 401, N-(4-Chlorobenzyl)-4-(6-chloro-4-quinolyl)-1-piperazinethiocarboxamide], the melting point is 89 to 90 °C.

In the case of `COc1cc2ncnc(N3CCN(C(=O)NCc4ccc(F)cc4)CC3)c2cc1OC` [Compound 172, 4-(6,7-Dimethoxy-4-quinazolinyl)-N-(4-fluorobenzyl)-1-piperazinecarboxamide], the melting point was 200 to 201 °C.

For the molecule `COc1cc2ncnc(N3CCN(C(=O)Nc4ccc(F)cc4)CC3)c2cc1OC` [Compound 36, 4-(6,7-Dimethoxy-4-quinazolinyl)-N-(4-fluorophenyl)-1-piperazinecarboxamide], the melting point lay in the range of 198 to 202 °C.

Molecule `COc1cccc(CNC(=S)N2CCN(c3ncnc4cc(OC)c(OC)cc34)CC2)c1` [Compound 197, 4-(6,7-Dimethoxy-4-quinazolinyl)-N-(3-methoxybenzyl)-1-piperazinethiocarboxamide] showed a melting point of 146 to 147 °C. As for `COc1cc2ncnc(N3CCN(C(=S)Nc4ccc(C(=O)c5ccccc5)cc4)CC3)c2cc1OC` [Compound 88, N-(4-Benzoylphenyl)-4-(6,7-dimethoxy-4-quinazolinyl)-1-piperazinethiocarboxamide], the melting point lay within 222 to 223 °C. Under `S=C(NCc1cccnc1)N1CCN(c2ncnc3ccccc23)CC1` [Compound 286, N-(3-Picolyl)-4-(4-quinazolinyl)-1-piperazinethiocarboxamide] stands 193 to 194 °C; under `COc1cc2ncnc(N3CCN(C(=S)Nc4ccc(C)cc4)CC3)c2cc1OC` [Compound 146, 4-(6,7-Dimethoxy-4-quinazolinyl)-N-(4-tolyl)-1-piperazinethiocarboxamide], 204 to 205 °C. With `CC(=O)c1ccc(NC(=O)N2CCN(c3ncnc4c(Cl)cc(Cl)cc34)CC2)cc1` [Compound 378, N-(4-Acetylphenyl)-4-(6,8-dichloro-4-quinazolinyl)-1-piperazinecarboxamide], the melting point was in the range of 187 to 188 °C. Under `CCn1c(=O)n(CC)c2cc3c(N4CCN(C(=O)Nc5ccc(Oc6ccccc6)cc5)CC4)ncnc3cc21` [Compound 122, 4-(1,3-Diethyl-1,3-dihydro-2-oxo-2H-imidazo[4,5-g]quinazolin-8-yl)-N-(4-phenoxyphenyl)-1-piperazinecarboxamide] stands 168 to 169 °C; under `COc1cc2ncnc(N3CCN(C(=S)Nc4ccc(Oc5ccccc5)cc4)CC3)c2cc1OC` [Compound 61, 4-(6,7-Dimethoxy-4-quinazolinyl)-N-(4-phenoxyphenyl)-1-piperazinethiocarboxamide], 242 to 243 °C.

In turn, `COc1cc2ncnc(N3CCN(C(=O)Nc4ccc(F)c(Cl)c4)CC3)c2cc1OC` [Compound 193, N-(3-Chloro-4-fluorophenyl)-4-(6,7-dimethoxy-4-quinazolinyl)-1-piperazinecarboxamide] displayed a melting point of 200 to 201 °C. Under `COc1cc2ncnc(N3CCN(C(=O)Nc4cc(C(F)(F)F)cc(C(F)(F)F)c4)CC3)c2cc1OC` [Compound 32, N-[3,5-Bis(trifluoromethyl)phenyl]-4-(6,7-dimethoxy-4-quinazolinyl)-1-piperazinecarboxamide] stands 251 to 252 °C. `COc1cc2ncnc(N3CCN(C(=O)Nc4c(Cl)cccc4Cl)CC3)c2cc1OC` [Compound 52, N-(2,6-Dichlorophenyl)-4-(6,7-dimethoxy-4-quinazolinyl)-1-piperazinecarboxamide] registered a melting point of 202 to 207 °C.

The melting point is the temperature of the solid-liquid transition.
